Experimental data as given in patent publication US20060128614A1, “Antimicrobial peptides with reduced hemolysis and methods of their use” (priority 2002, published 2006).
≈ marks a conversion by molar mass, not a printed value. Where two headings read alike, the source gives them in different places. Non-standard residues stand in square brackets, D forms with d. Residues, ends and D or L forms follow the SMILES beside them. Bip = N[C@@H](Cc1ccc(-c2ccccc2)cc1)C(=O)O; 1Nal = N[C@@H](Cc1cccc2ccccc12)C(=O)O; 2Nal = N[C@@H](Cc1ccc2ccccc2c1)C(=O)O

Columns and labels:
E. coli = type: cell-based, Escherichia coli
Description: (§1) The in vitro antimicrobial activities of antimicrobial agents were tested using standard NCCLS bacterial and fungi inhibition assays or minimum inhibition concentration (MIC) tests. The MIC value is the lowest concentration of peptide at which the visible growth of test organisms was inhibited and reduced. Overnight cultures of the test organisms were diluted to produce an inoculum containing approximately […] in Meuller-Hinton broth (MHB). From the peptide stock solution, serial dilutions of the peptides into […] were prepared and all wells of a 96-well microtiter plate were subsequently inoculated with the diluted culture of the test organisms. After 18 hours of incubation at 37°, the results were assayed for turbidity as an indicator of cell growth. MIC values for the peptides are shown in Table 3 and Table 4 and FIGS. 1(A), 1(B), 1 (C) and 1 (D) show survival rates for Pac-625 and Pac-626.

S. aureus = type: cell-based, Staphylococcus aureus
Description: as §1

[1] = qualitative statement
[2] = tested on: human red blood cells (RBC); type: cell-based
Description: Pac-401, Pac-403, Pac-625 and Pac-626 were tested for hemolysis against human red blood cells (RBC). The RBCs with EDTA were rinsed 3 times with PBS (800 g, 10 min) and re-suspended in PBS. The RBCs were diluted into 10% with phosphate-buffered saline and placed […] into each eppendorf. The peptides dissolved in PBS were then added to 50 μl of 10% solution of RBCs and incubated for an hour at 37° C. (final RBC concentration, 5% v/v). The samples were centrifuged at 800 g for 10 min […]. Various concentrations of peptides were incubated with pretreated RBC and the percentage of hemolysis determined.

[3] = tested on: outer membrane of E. coli; assay: NPN uptake assay, outer membrane permeabilization; type: cell-based; conditions: intact cells of E. coli
Description: The outer membrane permeabilization activity of the peptide variants was determined by the 1-N-phenylnaphthylamine (NPN) uptake assay, using intact cells of E. coli. […] Since NPN is hydrophobic, it provides a direct measurement of the degree of outer membrane permeability. E. coli take up little or no NPN in a general condition. In the presence of permeabilizer compounds (EDTA, polymyxin B, Neomycin, or antimicrobial peptides), NPN partitioned into the bacterial outer membrane results in an increase in fluorescence. Fluorescence will vary with the concentration of peptide.
One ml of overnight culture was used to inoculate 50 ml of media and incubated at 37° C. with shaking. The culture was permitted to grow to an OD600 of 0.4 to 0.6, cells were spun down at 3500 rpm for 10 minutes, washed, and re-suspended in buffer to an OD600 of 0.5. The OD600 was recorded, 1 ml of cells (OD600=0.5) was added to the cuvette and measured after 2-5 seconds. 20 μl NPN 0.5 mM, shaken to mix, was added and measured after 2-5 seconds. 10 ul antibiotic 100× desired final concentration was added, shaken to mix, and measured until the maximal value was reached within 1 to 5 minutes. The concentration of peptide leading to 50% of the maximum increase in NPN uptake was recorded as the P50.

Row | MIC against E. coli (E. coli; 18 h) | MIC against S. aureus (S. aureus; 18 h) | Compound | other results
1 | >64 µg/mL | >64 µg/mL | CC(C)[C@@H]1NC(=O)[C@H](Cc2ccc3ccccc3c2)NC(=O)[C@H](CCCNC(=N)N)NC(=O)[C@H](CCCNC(=N)N)NC(=O)[C@H](Cc2ccc3ccccc3c2)NC(=O)[C@H](CCCCN)NC1=O [Pac-402 C, K (2-Nal) R R (2-Nal) V] (cyclo(K[2Nal]RR[2Nal]V); ring closure inferred) | –
2 | 24 µg/mL (≈ 24.5 µM) | 16 µg/mL (≈ 16.3 µM) | CC[C@H](C)[C@H](NC(=O)[C@H](Cc1ccc2ccccc2c1)NC(=O)[C@H](CCCCN)NC(C)=O)C(=O)N[C@@H](CCCCN)C(=O)N[C@@H](Cc1ccc2ccccc2c1)C(=O)N[C@@H](CCCNC(=N)N)C(N)=O [Pac-403 L, K (2-Nal) I K (2-Nal) R] (Ac-K[2Nal]IK[2Nal]R-NH2) | % lysis @ 5 μg/ml [2]: 0.74%; % lysis @ 50 μg/ml [2]: 7.2%; % lysis @ 500 μg/ml [2]: 15%
3 | 64 µg/mL (≈ 45.7 µM) | 64 µg/mL (≈ 45.7 µM) | CC[C@H](C)[C@@H]1NC(=O)[C@H](Cc2ccc3ccccc3c2)NC(=O)[C@H](CCCNC(=N)N)NC(=O)[C@H](C(C)C)NC(=O)[C@H](Cc2ccc3ccccc3c2)NC(=O)[C@H](CCCNC(=N)N)NC(=O)[C@H](CCCNC(=N)N)NC(=O)[C@H](Cc2ccc3ccccc3c2)NC(=O)[C@H](CCCCN)NC1=O [Pac-625 C, K (2-Nal) R R (2-Nal) V R (2-Nal) I] (cyclo(K[2Nal]RR[2Nal]VR[2Nal]I); ring closure inferred) | –
4 | 64 µg/mL (≈ 45.7 µM) | 64 µg/mL (≈ 45.7 µM) | CC[C@H](C)[C@@H]1NC(=O)[C@H](Cc2cccc3ccccc23)NC(=O)[C@H](CCCNC(=N)N)NC(=O)[C@H](C(C)C)NC(=O)[C@H](Cc2cccc3ccccc23)NC(=O)[C@H](CCCNC(=N)N)NC(=O)[C@H](CCCNC(=N)N)NC(=O)[C@H](Cc2cccc3ccccc23)NC(=O)[C@H](CCCCN)NC1=O [Pac-627 C, K (1-Nal) R R (1-Nal) V R (1-Nal) I] (cyclo(K[1Nal]RR[1Nal]VR[1Nal]I); ring closure inferred) | –
5 | 24 µg/mL (≈ 24.2 µM) | 16 µg/mL (≈ 16.1 µM) | CC(=O)N[C@@H](CCCCN)C(=O)N[C@@H](Cc1ccc2ccccc2c1)C(=O)N[C@@H](CCCNC(=N)N)C(=O)N[C@@H](CCCNC(=N)N)C(=O)N[C@@H](Cc1ccc2ccccc2c1)C(=O)N[C@H](C(N)=O)C(C)C [Pac-402 L, K (2-Nal) R R (2-Nal) V] (Ac-K[2Nal]RR[2Nal]V-NH2; N-terminus and C-terminus assumed) | P50 (concentration of peptide leading to 50% of the maximum increase in NPN uptake) [3]: 16 µg/mL

Second part, the molecule before the results:

Row | Compound | MIC against E. coli (E. coli; 18 h) | MIC against S. aureus (S. aureus; 18 h) | other results
6 | CC[C@H](C)[C@@H]1NC(=O)[C@H](Cc2ccc3ccccc3c2)NC(=O)[C@H](CCCNC(=N)N)NC(=O)[C@H](CCCNC(=N)N)NC(=O)[C@H](Cc2ccc3ccccc3c2)NC(=O)[C@H](CCCCN)NC1=O [Pac-401 C, K (2-Nal) R R (2-Nal) I] (cyclo(K[2Nal]RR[2Nal]I); ring closure inferred) | >64 µg/mL | >64 µg/mL | –
7 | CC[C@H](C)[C@@H]1NC(=O)[C@H](CCCCN)NC(=O)[C@H](Cc2ccc3ccccc3c2)NC(=O)[C@H](CCCNC(=N)N)NC(=O)[C@H](CCCNC(=N)N)NC(=O)[C@H](Cc2ccc3ccccc3c2)NC(=O)[C@H](C(C)C)NC(=O)[C@H](CCCNC(=N)N)NC(=O)[C@H](Cc2ccc3ccccc3c2)NC1=O [Pac-626 C, I (2-Nal) R V (2-Nal) R R (2-Nal) K] (cyclo(I[2Nal]RV[2Nal]RR[2Nal]K); ring closure inferred) | 64 µg/mL (≈ 45.7 µM) | 64 µg/mL (≈ 45.7 µM) | –
8 | CC[C@H](C)[C@H](NC(C)=O)C(=O)N[C@@H](Cc1c[nH]c2ccccc12)C(=O)N[C@@H](CCCNC(=N)N)C(=O)N[C@H](C(=O)N[C@@H](Cc1c[nH]c2ccccc12)C(=O)N[C@@H](CCCNC(=N)N)C(=O)N[C@@H](CCCNC(=N)N)C(=O)N[C@@H](Cc1c[nH]c2ccccc12)C(=O)N[C@@H](CCCCN)C(N)=O)C(C)C [Pac-525rev, Ac-IWRVWRRWK-NH2] (Ac-IWRVWRRWK-NH2) | – | – | hemolytic activity [1]: very similar to that of Pac-525
9 | CC[C@H](C)[C@H](NC(=O)[C@H](Cc1ccc2ccccc2c1)NC(=O)[C@H](CCCNC(=N)N)NC(=O)[C@H](CCCNC(=N)N)NC(=O)[C@H](Cc1ccc2ccccc2c1)NC(=O)[C@H](CCCCN)NC(C)=O)C(N)=O [Pac-401 L, K (2-Nal) R R (2-Nal) I] (Ac-K[2Nal]RR[2Nal]I-NH2) | 16 µg/mL (≈ 15.9 µM) | 8 µg/mL (≈ 7.94 µM) | % lysis @ 5 μg/ml [2]: 0.85%; % lysis @ 50 μg/ml [2]: 6.8%; % lysis @ 500 μg/ml [2]: 14%
10 | CC[C@H](C)[C@H](NC(=O)[C@H](Cc1ccc2ccccc2c1)NC(=O)[C@H](CCCCN)NC(=O)[C@@H](NC(=O)[C@H](Cc1ccc2ccccc2c1)NC(=O)[C@H](CCCCN)NC(=O)[C@@H](NC(=O)[C@H](Cc1ccc2ccccc2c1)NC(=O)[C@H](CCCCN)NC(C)=O)[C@@H](C)CC)[C@@H](C)CC)C(N)=O [Pac-621, Ac-K(2-Nal) IK(2-Nal) IK(2-Nal) I-NH2] (Ac-K[2Nal]IK[2Nal]IK[2Nal]I-NH2) | – | – | MIC against E. coli (E. coli): 8 µg/mL (≈ 5.82 µM); MIC against S. aureus (S. aureus): 16 µg/mL (≈ 11.6 µM)
11 | CC[C@H](C)[C@H](NC(=O)[C@H](Cc1ccc(-c2ccccc2)cc1)NC(=O)[C@H](CCCNC(=N)N)NC(=O)[C@@H](NC(=O)[C@H](Cc1ccc(-c2ccccc2)cc1)NC(=O)[C@H](CCCNC(=N)N)NC(=O)[C@H](CCCNC(=N)N)NC(=O)[C@H](Cc1ccc(-c2ccccc2)cc1)NC(=O)[C@H](CCCCN)NC(C)=O)C(C)C)C(N)=O [Pac-628 L, K (Bip) R R (Bip) V R (Bip) I] (Ac-K[Bip]RR[Bip]VR[Bip]I-NH2) | 2 µg/mL (≈ 1.3 µM) | 4 µg/mL (≈ 2.6 µM) | MIC against E. coli (E. coli): 2 µg/mL (≈ 1.3 µM); P50 (concentration of peptide leading to 50% of the maximum increase in NPN uptake) [3]: 4 µg/mL; MIC against S. aureus (S. aureus): 4 µg/mL (≈ 2.6 µM)
12 | CC[C@H](C)[C@H](NC(=O)[C@H](Cc1cccc2ccccc12)NC(=O)[C@H](CCCNC(=N)N)NC(=O)[C@@H](NC(=O)[C@H](Cc1cccc2ccccc12)NC(=O)[C@H](CCCNC(=N)N)NC(=O)[C@H](CCCNC(=N)N)NC(=O)[C@H](Cc1cccc2ccccc12)NC(=O)[C@H](CCCCN)NC(C)=O)C(C)C)C(N)=O [Pac-627 L, K (1-Nal) R R (1-Nal) V R (1-Nal) I] (Ac-K[1Nal]RR[1Nal]VR[1Nal]I-NH2) | 4 µg/mL (≈ 2.74 µM) | 4 µg/mL (≈ 2.74 µM) | MIC against E. coli (E. coli): 4 µg/mL (≈ 2.74 µM); MIC against S. aureus (S. aureus): 4 µg/mL (≈ 2.74 µM)
13 | CC[C@H](C)[C@H](NC(=O)[C@H](Cc1ccc2ccccc2c1)NC(=O)[C@H](CCCNC(=N)N)NC(=O)[C@@H](NC(=O)[C@H](Cc1ccc2ccccc2c1)NC(=O)[C@H](CCCNC(=N)N)NC(=O)[C@@H](NC(=O)[C@H](Cc1ccc2ccccc2c1)NC(=O)[C@H](CCCCN)NC(C)=O)[C@@H](C)CC)C(C)C)C(N)=O [Pac-629, Ac-K(2-Nal) IR(2-Nal) VR(2-Nal) I-NH2] (Ac-K[2Nal]IR[2Nal]VR[2Nal]I-NH2) | – | – | MIC against E. coli (E. coli): 8 µg/mL (≈ 5.65 µM); MIC against S. aureus (S. aureus): 4 µg/mL (≈ 2.82 µM)
14 | CC[C@H](C)[C@@H]1NC(=O)[C@H](Cc2ccc3ccccc3c2)NC(=O)[C@H](CCCCN)NC(=O)[C@H](CCCNC(=N)N)NC(=O)[C@H](Cc2ccc3ccccc3c2)NC(=O)[C@H](CCCCN)NC1=O [Pac-403 C, K (2-Nal) I K (2-Nal) R] (cyclo(K[2Nal]IK[2Nal]R); ring closure inferred) | >64 µg/mL | >64 µg/mL | –
15 | CC[C@H](C)[C@@H]1NC(=O)[C@H](Cc2ccc(-c3ccccc3)cc2)NC(=O)[C@H](CCCNC(=N)N)NC(=O)[C@H](C(C)C)NC(=O)[C@H](Cc2ccc(-c3ccccc3)cc2)NC(=O)[C@H](CCCNC(=N)N)NC(=O)[C@H](CCCNC(=N)N)NC(=O)[C@H](Cc2ccc(-c3ccccc3)cc2)NC(=O)[C@H](CCCCN)NC1=O [Pac-628 C, K (Bip) R R (Bip) V R (Bip) I] (cyclo(K[Bip]RR[Bip]VR[Bip]I); ring closure inferred) | 64 µg/mL (≈ 43.3 µM) | 64 µg/mL (≈ 43.3 µM) | –
